Data set [1] in a line: Lipophilicity, logD of compound at pH 7.4. The format is physicochemical. Conditions: buffer.
A short description of data set [2]: Metabolic stability in rat Hepatocyte assessed as intrinsic clearance at 0.5 uM incubated for 60 mins by LC-MS/MS analysis. The class given is ADME, tissue-based. To be noted: hepatocytes, 1 h.
Data set [3] can be described thus: Unbound clearance in Beagle dog at 0.5 mg/kg, iv measured upto 24 hrs by LC-MS/MS analysis. The format is ADME, organism-based, Canis lupus familiaris. Conditions: in vivo.
Data set [4] can be described thus: Oral bioavailability in Beagle dog at 0.5 mg/kg measured upto 24 hrs by LC-MS/MS analysis. The class given is ADME, organism-based, Canis lupus familiaris. Conditions: in vivo.
A short description of data set [5]: Half life in Wistar Han rat at 1 mg/kg, iv measured upto 7 hrs by LC-MS/MS analysis. Conditions: in vivo. The format is ADME, organism-based.
A short description of data set [6]: LBF in Beagle dog at 0.5 mg/kg, iv measured upto 24 hrs by LC-MS/MS analysis. The class given is ADME, organism-based, Canis lupus familiaris. To be noted: in vivo.
Data set [7] in a line: Half life in Beagle dog at 0.5 mg/kg, iv measured upto 24 hrs by LC-MS/MS analysis. The class given is ADME, organism-based, Canis lupus familiaris. Conditions: in vivo.
Data set [8] is described as follows: Oral bioavailability in Wistar Han rat at 3 mg/kg measured upto 24 hrs by LC-MS/MS analysis. The format is ADME, organism-based. Conditions: in vivo.
A short description of data set [9]: Clearance in Beagle dog at 0.5 mg/kg, iv measured upto 24 hrs by LC-MS/MS analysis. The class given is ADME, organism-based, Canis lupus familiaris. Conditions: in vivo.
A short description of data set [10]: LBF in Wistar Han rat at 1 mg/kg, iv measured upto 7 hrs by LC-MS/MS analysis. The format is ADME, organism-based. Conditions: in vivo.
The nature of data set [11]: Volume of distribution at steady state in Beagle dog at 0.5 mg/kg, iv measured upto 24 hrs by LC-MS/MS analysis. Conditions: in vivo, read-out: Vdss. The format is ADME, organism-based, Canis lupus familiaris.
The nature of data set [12]: Unbound clearance in Wistar Han rat at 1 mg/kg, iv measured upto 7 hrs by LC-MS/MS analysis. To be noted: in vivo. The class given is ADME, organism-based.
Data set [13] is described as follows: Metabolic stability in human Hepatocyte assessed as intrinsic clearance at 0.5 uM incubated for 120 mins by LC-MS/MS analysis. The format is ADME, tissue-based. To be noted: hepatocytes, 2 h.
A short description of data set [14]: Metabolic stability in dog Hepatocyte assessed as intrinsic clearance at 0.5 uM incubated for 60 mins by LC-MS/MS analysis. The format is ADME, tissue-based, Canis lupus familiaris. To be noted: hepatocytes, 1 h.
Data set [15] is described as follows: Clearance in Wistar Han rat at 1 mg/kg, iv measured upto 7 hrs by LC-MS/MS analysis. The class given is ADME, organism-based. To be noted: in vivo.
The nature of data set [16]: Volume of distribution at steady state in Wistar Han rat at 1 mg/kg, iv measured upto 7 hrs by LC-MS/MS analysis. The class given is ADME, organism-based. Conditions: in vivo, read-out: Vdss.

A value given as a limit tells only on which side of the number the result lay.

In general, logD refers to the decadic logarithm of the distribution of all forms, ionised or not, between an organic phase and buffer at a given pH. As usually defined, the bioavailability is dose-corrected exposure relative to a reference, in per cent. Read a high bioavailability as much systemic uptake. As a reminder, the half-life is how long it takes for the measured level to halve. Lower therefore signals rapid decline. One may read the clearance as a measure of how efficiently the substance is removed, as volume per time. Read a high clearance as a high capacity for elimination.

In [1], `CNC(=O)c1cc(C(=O)NC)c2c(c1)[C@H](c1ccccc1)CO2` displayed a logD of 3.2.
Turning to `CNC(=O)c1cc(C(=O)N[C@H]2[C@@H]3COC[C@@H]32)cc2c1OC[C@H]2c1cccc2[nH]ccc12`, the logD in [1] amounted to 3.1. For the same compound, in [2], the CLH stood at 3.6 mL/min/g.
As for `CNC(=O)c1cc(C(=O)N[C@H]2[C@@H]3COC[C@@H]32)cc2c1OC[C@H]2c1ccccc1C`, in [1], the logD was 4. Also, the CLH in data set [2] was determined as 30.9 mL/min/g.
For the compound `CNC(=O)c1cc(C(=O)NC2CC2)cn(Cc2ccccc2)c1=O` [GSK620], the logD in data set [1] came to 3.1. The CLH in data set [2] turned out to be 1 mL/min/g.
As to `CNC(=O)c1cc(C(=O)NC)c2c(c1)[C@](C)(c1ccccc1)CO2`, in [1], the logD turned out to be 3.4.
The same measure, in the same setting: under `CNC(=O)c1cc(C(=O)N[C@H]2[C@@H]3COC[C@@H]32)cc2c1OC[C@H]2c1ccccn1` (racemic) stands 1.6.
`CNC(=O)c1cc(C(=O)N[C@H]2[C@@H]3COC[C@@H]32)cc2c1O[C@H](CF)[C@H]2c1ccccc1` [GSK973]: in data set [1], the logD came to 3.6. Also, the CLH in data set [2] is 1.8 mL/min/g.
On to `CNC(=O)c1cc(C(=O)N[C@H]2C[C@@H]2C)cc2c1OC[C@H]2c1ccccc1`, for which the logD in data set [1] turned out to be 4.5.
The same measure, in the same setting: under `CNC(=O)c1cc(C(N)=O)cc2c1OC[C@H]2c1ccccc1` stands 2.7; under `CNC(=O)c1cc(C(=O)N[C@H]2CC[C@H](O)CC2)cc2c1OC[C@@]2(C)c1ccccc1`, 3.3.
Turning to `CNC(=O)c1cc(C(=O)NC2CC2)cc2c1OC[C@@]2(C)c1ccccc1`, the logD in data set [1] is 4. The CLH in data set [2] amounted to 6.7 mL/min/g.
For `CCC(=O)N1C[C@@H]2[C@H](C1)[C@H]2NC(=O)c1cc(C(=O)NC)c2c(c1)[C@H](c1ccccc1)CO2` the same measures were 3.4 and 6.8 mL/min/g.
As for `CNC(=O)c1cc(C(=O)N[C@H]2[C@@H]3COC[C@@H]32)cc2c1OC[C@H]2c1ccccc1`, the logD in [1] was 3.3. Further, in [2], the CLH came to 8.6 mL/min/g.
Turning to `CNC(=O)c1cc(C(=O)N[C@H]2[C@@H]3COC[C@@H]32)cc2c1OC[C@H]2c1ccncc1` (racemic), the logD in data set [1] amounted to 1.3.
In data set [1], `CNC(=O)c1cc(C(=O)N[C@H]2[C@@H]3C[C@H](O)C[C@@H]32)cc2c1OC[C@@]2(C)c1ccccc1` showed a logD of 3.7. Also, the CLH in data set [2] amounted to 6.4 mL/min/g.
In data set [1], `CNC(=O)c1cc(C(=O)N[C@H]2[C@@H]3C[C@@H](O)C[C@@H]32)cc2c1OC[C@@]2(C)c1ccccc1` yielded a log distribution coefficient (logD) of 3.3. In addition, the figures for the CL free in data set [3] and in data set [12] were 24 mL/min/kg and 260 mL/min/kg, respectively. Further, the bioavailability came out at 64% in data set [4] and 32% in [8]. Moreover, the half-life is 42 min in [5] and 174 min in data set [7]. Further, the LBF in data set [6] was 8%; in data set [10], 69%. Further, the clearance in data set [9] stood at 5 mL/min/kg; in data set [15], 55 mL/min/kg. Besides, the CLH in data set [2] is 1 mL/min/g; in data set [13], less than 0.5 mL/min/g; in data set [14] it was less than 0.7 mL/min/g. Further, the Vd in [11] was found to be 0.9 L/kg; in data set [16] it was 2.3 L/kg.
In [1], `CC[C@@]1(c2ccccc2)COc2c(C(=O)NC)cc(C(=O)N[C@H]3[C@@H]4COC[C@@H]43)cc21` registered a logD of 4.2.
The same measure, in the same setting: the value for `CNC(=O)c1cc(C(=O)N[C@H]2[C@@H]3COC[C@@H]32)cc2c1OC[C@H]2c1cccnc1` (racemic) was 1.4.
The same measure, in the same setting: the value for `CNC(=O)c1cc(C(=O)N[C@H]2[C@@H]3COC[C@@H]32)cc2c1OC[C@H]2C1CCOCC1` was 2.1.
Regarding `CNC(=O)c1cc(C(=O)N[C@H]2[C@@H]3C[C@@H](O)C[C@@H]32)cc2c1OC[C@H]2c1ccccc1`, in data set [1], the logD is 2.9. Also, in data set [2], the CLH stood at 3.3 mL/min/g.
For `CNC(=O)c1cc(C(=O)N[C@H]2[C@@H]3COC[C@@H]32)cc2c1OC[C@@]2(CO)c1ccccc1` the same measures were 2.4 and 1.4 mL/min/g.
In turn, `CNC(=O)c1cc(C(=O)N[C@@H]2C[C@H]2C)cc2c1O[C@H](CF)[C@H]2c1ccccc1` returned a logD in data set [1] of 4.5.
On the same count and under the same terms, under `CNC(=O)c1cc(C(N)=O)cc2c1O[C@H](CF)[C@H]2c1ccccc1` stands 2.9.
`CNC(=O)c1cc(C(=O)NC2CC2)cc2c1OC[C@H]2c1ccccc1` returned a logD in [1] of 3.6. The half-life in data set [5] is 18 min. The same compound returned a bioavailability in data set [8] of 47%. In addition, the LBF in [10] is listed as 43%. Moreover, the figures for the CLH in [2], in data set [13] and in [14] were 2 mL/min/g, less than 0.5 mL/min/g and less than 0.7 mL/min/g, respectively. The CL free in data set [12] worked out at 723 mL/min/kg. The clearance in data set [15] amounted to 34 mL/min/kg. Further, the Vd in [16] worked out at 0.6 L/kg.
In turn, `CNC(=O)c1cc(C(=O)N[C@H]2C[C@@H]2C)cc2c1OC[C@@]2(C)c1ccccc1` returned a logD in data set [1] of 4.7.
The compound `CNC(=O)c1cc(C(=O)NC)c2c(c1)[C@H](c1ccccc1)[C@@H](CF)O2` gave a logD in data set [1] of 3.3. For the same compound, the CLH in data set [2] turned out to be 3 mL/min/g.
As to `CNC(=O)c1cc(C(=O)NC2CC2)cc2c1OC[C@H]2c1ccc(F)cc1`, the logD in data set [1] was found to be 3.8. Further, the CLH in data set [2] came to 6.1 mL/min/g.
`CNC(=O)c1cc(C(=O)N[C@H]2C[C@@H]2C)cc2c1OC[C@@]2(CO)c1ccccc1` displayed a log distribution coefficient (logD) in data set [1] of 3.3. Further, the half-life in [5] was 18 min. Moreover, in data set [8], the bioavailability came out at 38%. Further, the LBF in data set [10] was determined as 60%. The results for the CLH in data set [2], in data set [13] and in [14] were 2.7 mL/min/g, less than 0.5 mL/min/g and 1 mL/min/g, respectively. In data set [12], this compound showed a CL free of 340 mL/min/kg. The compound further yielded a clearance in [15] of 60 mL/min/kg. Besides, in data set [16], the Vd turned out to be 1.2 L/kg.
Turning to `CNC(=O)c1cc(C(=O)NCCC[C@H]2OC[C@H](N)CO2)cc2c1OC[C@H]2c1ccccc1`, in data set [1], the pH-dependent lipophilicity (logD) is 2.6.
On to `CNC(=O)c1cc(C(=O)NCCc2cnn(C)c2)cc2c1OC[C@H]2c1cccc2[nH]ccc12`, for which the logD in data set [1] was 3.2. For the same compound, the CLH in data set [2] came out at 16.3 mL/min/g.
Taken in the same sequence, the figures for `CNC(=O)c1cc(C(=O)N[C@H]2[C@@H]3COC[C@@H]32)cc2c1OC[C@H]2c1ccc(F)cc1` were 3.6 and 14.8 mL/min/g.
Regarding `CNC(=O)c1cc(C(=O)N[C@H]2[C@@H]3COC[C@@H]32)cc2c1OC[C@H]2c1cccc(OC)c1` (racemic), the logD in [1] was 3.2.
Consider `CNC(=O)c1cc(C(=O)NC2CC2)cc2c1OC[C@H]2c1cccc2[nH]ccc12`, for which, in data set [1], the logD was 3.5. The CLH in [2] amounted to 4.6 mL/min/g.
`CNC(=O)c1cc(C(=O)NC2CC2)cc2c1O[C@H](CF)[C@H]2c1ccccc1` returned a log distribution coefficient (logD) in [1] of 3.9. Moreover, the CLH in [2] turned out to be 3.2 mL/min/g.
Compound `CNC(=O)c1cc(C(=O)NCCC[C@H]2OC[C@H](N)CO2)cc2c1O[C@H](CF)[C@H]2c1ccccc1` registered a logD in data set [1] of 2.9. Also, the CLH in [2] was 1.1 mL/min/g.
For `CNC(=O)c1cc(C(=O)NC2CC2)cc2c1OC[C@H]2c1cccc(F)c1` the same measures were 3.7 and 10 mL/min/g.
For `CNC(=O)c1cc(C(=O)Nc2cnn(C)c2)cc2c1OC[C@H]2c1ccccc1` the same measures were 3.5 and 20.1 mL/min/g.
`CNC(=O)c1cc(C(=O)NC2CC2)cc2c1OC[C@H]2c1cccc(OC)c1` (racemic) gave a log distribution coefficient (logD) in [1] of 3.8.
`CNC(=O)c1cc(C(=O)N[C@H]2[C@@H]3COC[C@@H]32)cc2c1OC[C@@]2(C)c1ccccc1`: the logD in [1] was found to be 3.7. Further, the half-life in data set [5] was 18 min. In data set [8], this compound returned a bioavailability of 54%. In data set [10], the LBF turned out to be 77%. In addition, the values for the CLH in data set [2], in data set [13] and in [14] were 1.2 mL/min/g, less than 0.5 mL/min/g and less than 0.7 mL/min/g, respectively. In data set [12], this compound registered a CL free of 274 mL/min/kg. In data set [15], this compound yielded a clearance of 61 mL/min/kg. For the same compound, the Vd in data set [16] amounted to 1.6 L/kg.
In data set [1], `CNC(=O)c1cc(C(=O)NCCc2cnn(C)c2)cc2c1OC[C@H]2c1ccccc1` had a logD of 3.2.

These data come from ChEMBL document CHEMBL4834466 (J Med Chem, 2021).
